According to PubChem BioAssay (NCI):
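GI50: concentration for 50% inhibition of growth. TGI denotes the concentration required for complete inhibition of growth.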

Experiments:
Assay in all cases: DTP human tumour cell line panel, 384-well format
[1] = tested on: CAKI-1 renal
[2] = tested on: UACC-257 melanoma
[3] = tested on: HOP-92 NSCLC
[4] = tested on: HCT-116 colon
[5] = tested on: PC-3 prostate
[6] = tested on: OVCAR-3 ovarian
[7] = tested on: HS 578T breast
[8] = tested on: NCI-H23 lung
[9] = tested on: LOX IMVI melanoma
[10] = tested on: NCI-H226 lung
[11] = tested on: SR leukemia
[12] = tested on: BT-549 breast
[13] = tested on: SN12C renal
[14] = tested on: COLO 205 colon
[15] = tested on: HT29 colon
[16] = tested on: MDA-MB-435 melanoma
[17] = tested on: UACC-62 melanoma
[18] = tested on: MCF7 breast
[19] = tested on: NCI-H522 lung
[20] = tested on: A549 NSCLC
[21] = tested on: HOP-62 NSCLC
[22] = tested on: M14 melanoma
[23] = tested on: SF-295 CNS
[24] = tested on: NCI/ADR-RES ovarian
[25] = tested on: HL-60(TB) leukemia
[26] = tested on: U251 glioblastoma
[27] = tested on: SK-OV-3 ovarian
[28] = tested on: DU-145 prostate
[29] = tested on: HCC-2998 colon
[30] = tested on: NCI-H322M lung
[31] = tested on: ACHN renal
[32] = tested on: MDA-MB-231 breast
[33] = tested on: RPMI-8226 leukemia
[34] = tested on: MOLT-4 leukemia
[35] = tested on: KM12 colon
[36] = tested on: HCT-15 colon
[37] = tested on: A498 renal
[38] = tested on: EKVX NSCLC
[39] = tested on: OVCAR-5 ovarian
[40] = tested on: OVCAR-8 ovarian
[41] = tested on: MALME-3M melanoma
[42] = tested on: SK-MEL-5 melanoma
[43] = tested on: SNB-75 CNS
[44] = tested on: RXF 393 renal
[45] = tested on: OVCAR-4 ovarian
[46] = tested on: SK-MEL-28 melanoma
[47] = tested on: TK-10 renal
[48] = tested on: IGROV1 ovarian
[49] = tested on: T-47D breast
[50] = tested on: NCI-H460 NSCLC
[51] = tested on: MDA-MB-468 breast
[52] = tested on: SF-539 CNS
[53] = tested on: SF-268 CNS
[54] = tested on: SNB-19 CNS

## CCc1c[nH]c2ncnc(N3CC[C@](N)(CNC(=O)c4ccc(F)cc4F)C3)c12
[1]
  GI50: 5.18 µM
  TGI: > 100 µM
[2]
  GI50: 7.7 µM
  TGI: 31.1 µM
[3]
  GI50: 29.6 µM
  TGI: > 100 µM
[4]
  GI50: 6.21 µM
  TGI: > 100 µM
[5]
  GI50: 0.446 µM
  TGI: 21.8 µM
[6]
  GI50: 8.07 µM
  TGI: > 100 µM
[7]
  GI50: 2.53 µM
  TGI: 95.3 µM
[8]
  GI50: 13.8 µM
  TGI: > 100 µM
[9]
  GI50: 18.8 µM
  TGI: > 100 µM
[10]
  GI50: 9.86 µM
  TGI: > 100 µM
[11]
  GI50: 0.0603 µM
  TGI: 1.98 µM
[12]
  GI50: 1.27 µM
  TGI: 18.4 µM
[13]
  GI50: 7.5 µM
  TGI: > 100 µM
[14]
  GI50: 4.95 µM
  TGI: 28.6 µM
[15]
  GI50: 3.98 µM
  TGI: > 100 µM
[16]
  GI50: 15.4 µM
  TGI: 73.4 µM
[17]
  GI50: 4.26 µM
  TGI: 25.1 µM
[18]
  GI50: 0.375 µM
  TGI: > 100 µM
[19]
  GI50: 11 µM
  TGI: 35.8 µM
[20]
  GI50: 10.8 µM
  TGI: > 100 µM
[21]
  GI50: 6.34 µM
  TGI: 82.3 µM
[22]
  GI50: 14.4 µM
  TGI: > 100 µM
[23]
  GI50: 1.95 µM
  TGI: > 100 µM
[24]
  GI50: 12.3 µM
  TGI: > 100 µM
[25]
  GI50: 10.4 µM
  TGI: 23.5 µM
[26]
  GI50: 2.79 µM
  TGI: > 100 µM
[27]
  GI50: 0.892 µM
  TGI: > 100 µM
[28]
  GI50: 6.69 µM
  TGI: > 100 µM
[29]
  GI50: 3.13 µM
  TGI: 88 µM
[30]
  GI50: 7.12 µM
  TGI: > 100 µM
[31]
  GI50: 4.85 µM
  TGI: > 100 µM
[32]
  GI50: 68.8 µM
  TGI: > 100 µM
[33]
  GI50: 3.38 µM
  TGI: 30.2 µM
[34]
  GI50: 0.237 µM
  TGI: 1.76 µM
[35]
  GI50: 0.959 µM
  TGI: > 100 µM
[36]
  GI50: 5.47 µM
  TGI: > 100 µM
[37]
  GI50: 0.136 µM
  TGI: 2.09 µM
[38]
  GI50: 7.28 µM
  TGI: 46.2 µM
[39]
  GI50: 4.4 µM
  TGI: 55.8 µM
[40]
  GI50: 15 µM
  TGI: > 100 µM
[41]
  GI50: 8.62 µM
  TGI: 28.6 µM
[42]
  GI50: 12.9 µM
  TGI: 28.9 µM
[43]
  GI50: 0.626 µM
  TGI: > 100 µM
[44]
  GI50: 3.34 µM
  TGI: > 100 µM
[45]
  GI50: 32 µM
  TGI: > 100 µM
[46]
  GI50: 9.04 µM
  TGI: > 100 µM
[47]
  GI50: 1.26 µM
  TGI: 45.3 µM
[48]
  GI50: 0.149 µM
  TGI: 1.71 µM
[49]
  GI50: 0.343 µM
  TGI: > 100 µM
[50]
  GI50: 0.536 µM
  TGI: 20.2 µM
[51]
  GI50: 0.454 µM
  TGI: 18.9 µM
[52]
  GI50: 0.442 µM
  TGI: > 100 µM
[53]
  GI50: > 100 µM
  TGI: > 100 µM
[54]
  GI50: 3.49 µM
  TGI: > 100 µM
